Assay results as given in patent publication US20170051149A1, “AZOARYLS AS REVERSIBLY MODULATABLE TUBULIN INHIBITORS” (ECOLE NORMALE SUPERIEURE DE LYON, priority 2014, published 2017).

Tests used:
HeLa cells = assay: cytotoxicity by crystal violet staining; assay type: cell-based; conditions: 40 h
HeLa = assay: membrane permeability, PI uptake in nonpermeabilized cells; assay type: cell-based; conditions: 70 h
Protocol: (§1) Membrane integrity was assessed as a marker of cellular viability, via examining the uptake of propidium iodide (PI) in nonpermeabilized cells according to a standard protocol. Namely, cells were harvested and incubated with 5 μg/mL PI in PBS containing 2% FCS (foetal calf serum), and immediately analysed by flow cytometry using a FACSCalibur flow cytometer.

Jurkat cells = assay: as above; assay type: cell-based; conditions: 48 h
Protocol: as §1

MDA-MB-231 = assay: as above; assay type: cell-based; conditions: 70 h
Protocol: as §1

[1] = fluorescence spectrophotometry (excitation and emission spectra); assay type: physicochemical
Protocol: Absorption spectra in cuvette (“UV-Vis”) were acquired on a Varian CaryScan 50 (1 cm, 100 μL or 1 mL volume) with Peltier cell temperature control unit maintained at 37° C., in PBS at pH˜7.4 containing a low percentage of cosolvent if needed (typically 2% MeCN or 5% DMSO). A ThorLabs Polychrome V monochromator with a fibre optic cable output directed into the cuvette was used to perform photoisomerisation studies by UV-Vis spectrophotometry although single LEDs of approximately 10-20 mW output, 15-20° cone angle, and 10-15 nm bandwidth FWHM, obtained commercially from Roithner Lasertechnik GmbH, were equally successful in providing repeatable monochromatic photoisomerisation. Separated spectra of trans and […] forms were acquired from the inline Diode Array Detector on the AGILENT 1260 SL coupled LC-MS system after HPLC separation. Fluorescence spectrophotometry (excitation and emission spectra) were acquired on a Varian CaryEclipse fluorescence spectrophotometer.
Fluorescence imaging is commonly used to sensitively, conveniently and non-invasively determine the local concentration of fluorescent species in biological and medical settings. Considering I.25 as an example of a compound of the invention bearing a fluorescent reporter, it was considered desirable that its rhodamine moiety would allow fluorescence detection of I.25.

[2] = 200 nM, 390 nm (1 s every 15 min)
[3] = 600 nM, 390 nm (1 s every 15 min)
[4] = 1.5 μM, 390 nm (1 s every 15 min)
[5] = 5 μM, 390 nm (1 s every 15 min)

COc1ccc(N=Nc2cc(OC)c(OC)c(OC)c2)cc1O [I.1, 2-methoxy-5-((3,4,5-trimethoxyphenyl)diazenyl)phenol]
mean fold growth (HeLa cells; 100 nM, 390 nm (75 ms every 15 s)): 0.95 fold | mean fold growth (HeLa cells; 100 nM, Dark): 0.95 fold | mean fold growth (HeLa cells; 500 nM, 390 nm (75 ms every 15 s)): 0.85 fold | mean fold growth (HeLa cells; 500 nM, Dark): 0.89 fold | mean fold growth (HeLa cells; 1 μM, 390 nm (75 ms every 15 s)): 0.43 fold | mean fold growth (HeLa cells; 1 μM, Dark): 0.87 fold | mean fold growth (HeLa cells; 2 μM, 390 nm (75 ms every 15 s)): 0.35 fold | mean fold growth (HeLa cells; 2 μM, Dark): 0.89 fold | mean fold growth (HeLa cells; 5 μM, 390 nm (75 ms every 15 s)): 0.27 fold | mean fold growth (HeLa cells; 5 μM, Dark): 0.84 fold | mean fold growth (HeLa cells; 10 μM, 390 nm (75 ms every 15 s)): 0.35 fold | mean fold growth (HeLa cells; 10 μM, Dark): 0.75 fold | mean % cells PI+ (HeLa; [2]): 4.5% | mean % cells PI+ (HeLa; 200 nM, dark): 4.5% | mean % cells PI+ (HeLa; [3]): 8.2% | mean % cells PI+ (HeLa; 600 nM, dark): 4.3% | mean % cells PI+ (HeLa; [4]): 46.1% | mean % cells PI+ (HeLa; 1.5 μM, dark): 4.2% | mean % cells PI+ (HeLa; [5]): 73.0% | mean % cells PI+ (HeLa; 5 μM, dark): 5.1% | mean % cells PI+ (Jurkat cells; 50 nM, 390 nm (350 ms every 5 min)): 1.3% | mean % cells PI+ (Jurkat cells; 50 nM, Dark): 1.6% | mean % cells PI+ (Jurkat cells; 100 nM, 390 nm (350 ms every 5 min)): 2.3% | mean % cells PI+ (Jurkat cells; 100 nM, dark): 2.2% | mean % cells PI+ (Jurkat cells; 200 nM, 390 nm (350 ms every 5 min)): 3.4% | mean % cells PI+ (Jurkat cells; 200 nM, dark): 2.3% | mean % cells PI+ (Jurkat cells; 400 nM, 390 nm (350 ms every 5 min)): 6.3% | mean % cells PI+ (Jurkat cells; 400 nM, dark): 2.3% | mean % cells PI+ (Jurkat cells; 600 nM, 390 nm (350 ms every 5 min)): 8.1% | mean % cells PI+ (Jurkat cells; 600 nM, dark): 2.8% | mean % cells PI+ (MDA-MB-231; [2]): 4.4% | mean % cells PI+ (MDA-MB-231; 200 nM, dark): 5.0% | mean % cells PI+ (MDA-MB-231; [3]): 8.2% | mean % cells PI+ (MDA-MB-231; 600 nM, dark): 4.6% | mean % cells PI+ (MDA-MB-231; [4]): 24.1% | mean % cells PI+ (MDA-MB-231; 1.5 μM, dark): 4.3% | mean % cells PI+ (MDA-MB-231; [5]): 47.2% | mean % cells PI+ (MDA-MB-231; 5 μM, dark): 5.0%

CCN(CC)c1ccc2c(-c3ccccc3C(=O)N3CCN(CCCOc4c(N=Nc5cc(OC)c(OC)c(OC)c5)ccc(OC)c4C)CC3)c3ccc(=[N+](CC)CC)cc-3oc2c1.CCN(CC)c1ccc2c(-c3ccccc3C(=O)N3CCN(CCCOc4c(N=Nc5cc(OC)c(OC)c(OC)c5)ccc(OC)c4C)CC3)c3ccc(=[N+](CC)CC)cc-3oc2c1.O=C[O-].O=C[O-] [I.25, N-(6-(diethylamino)-9-(2-(4-(3-(3-methoxy-2-methyl-6-((3,4,5-trimethoxyphenyl)diazenyl)phenoxy)propyl)piperazine-1-carbonyl)phenyl)-3H-xanthen-3-ylidene)-N-ethylethanaminium bis(formate) salt]
excitation wavelength giving maximum emission intensity ([1]; emission at 590 nm): 570 nm | fluorescence emission maximum ([1]; excited at 380 nm or 554 nm, 10 μM, 60:32:8 EtOH:PBS:MeCN, 25° C.): 590 nm
